For the data set, the system named is Caco-2. Description: Monolayer Caco-2 permeability experiment. The data set is classed as in vitro ADME.

Consider `CSc1nc(-c2cccc(NC(=O)c3c(F)ccc(O)c3CN3C(=O)c4ccccc4C3=O)c2)c(-c2ccnc(NC(C)=O)c2)[nH]1` [Compound 2c, N-(3-(5-(2-acetamidopyridin-4-yl)-2-(methylthio)-1H-imidazol-4-yl)phenyl)-2-((1,3-dioxoisoindolin-2-yl)methyl)-6-fluoro-3-hydroxybenzamide], for which the “cellular permeability (Caco-2)” value was “limited cellular permeability”.

With `C=CC(=O)Nc1ccc(OC)c(Nc2cc(-c3[nH]c(SC)nc3-c3cccc(NC(=O)c4c(F)ccc(O)c4CN4C(=O)c5ccccc5C4=O)c3)ccn2)c1` [Compound 1, N-(3-(5-(2-((5-acrylamido-2-methoxyphenyl)amino)pyridin-4-yl)-2-(methylthio)-1H-imidazol-4-yl)phenyl)-2-((1,3-dioxoisoindolin-2-yl)methyl)-6-fluoro-3-hydroxybenzamide], the “cellular permeability (Caco-2)” value is reported as “limited cellular permeability”.

These data come from PMC9255384 (Journal of medicinal chemistry, 2021).
